Where two headings read alike, the source gives them in different places.
How the values were obtained:
male Wistar rats [1] = experiment: Diuresis test: ED50 dose response, intravenous, urine electrolytes after 2.5 hours; format: in vivo; conditions: for ED50: Rattus norvegicus, iv, urine collected after 2.5 hours
Description: For the tests, male Wistar rats of about 130 g body weight from which food had been withheld for 18 hours were used. […] Intravenous administration for determining K^+ was at dosage intervals for the actiee substance of 0.05, 0.1, 0.2, 0.3, 0.6, 1, and 2 mg/kg: for determining Na^+ at dosage intervals of 0.5, 1, 2, 4, 8, 16 and 20 mg/kg. For the prior art substances compared, the same tests were made and these substances were further administered at 30 mg/kg and 100 mg/kg. Injection was into the caudal vein under light etherization. […] Peroral administration was by means of a stomach tube into the gastrointestinal tract.
Dose response curves were constructed by the use of non-linear regression analysis using the NONLIN computer program of C. Daniel and F. S. Wood in "Fitting Equations to Data" (J. Wiley & Sons, New York, 1980).
The characteristic quantity ED50 (potency) used in determining the diuretic activity is defined as the amount of active substance per kilogram of body weight required to produce a response in 50 percent of the subjects.

male Wistar rats [2] = conditions: furosemide 8.27 mg/kg i.v. alone; 1.5 hours; mean; control 5.0
Description: They were orally given 20 ml/kg of an 0.9% NaCl solution just before the test substance was administered intravenously. […] Injection was into the caudal vein under light ether anasthesia. As a rule six test animals were used per test. The animals were individually placed into diuresis cages and the urine was collected after 1.5 hours. Analysis was performed as for the determination of potency given above. IA stands for 2,4,7-triamino-6-[4-(2-hydroxy-3-dimethylaminopropoxy)phenyl]-pteridine.

male Wistar rats [3] = experiment: Diuresis test with individual pteridine compounds, intravenous, urine after 2.5 hours; format: in vivo; conditions: 2.5 μmol/kg i.v.; for K^+ -excretion: control 0.609; for Na^+ -excretion: control 0.83; for Volume of urine: control 7.37
Description: They were orally given 20 ml/kg of an 0.9% NaCl solution just before the test substance was administered intravenously. […] Injection was into the caudal vein under light ether anasthesia. As a rule six test animals were used per test. […] Analysis was performed as for the determination of potency given above. IA stands for 2,4,7-triamino-6-[4-(2-hydroxy-3-dimethylaminopropoxy)phenyl]-pteridine.

[4] = cited from earlier work
[5] = K^+ (potassium-sparing), read-out: ED50 K^+
[6] = Na^+ (natriuretic), read-out: ED50 Na^+

Structure (SMILES)	K^+ -excretion (male Wistar rats [3]) [mmol/kg]	Na^+ -excretion (male Wistar rats [3]) [mmol/kg]	Volume of urine (male Wistar rats [3]) [L/kg]	further results
CN(C)CCCOc1ccc(-c2nc3c(N)nc(N)nc3nc2N)cc1 [DES-OH, 2,4,7-triamino-6-[4-(3-dimethylaminopropoxy)phenyl]-pteridine, reference compound]	–	–	–	ED50 (male Wistar rats [1]; [5]): 0.54 µmol/kg; ED50 (male Wistar rats [1]; [6]): 5.53 µmol/kg
NS(=O)(=O)c1cc(C(=O)O)c(NCc2ccco2)cc1Cl [Furosemide, 4-chloro-N-furfuryl-5-sulfamoylanthranilic acid]	–	–	–	Volume of urine (male Wistar rats [2]): 0.0525 L/kg
CN(C)CC(O)COc1ccc(-c2nc3c(N)nc(N)nc3nc2N)cc1 (centres unmarked) [IA, 2,4,7-triamino-6-[4-(2-hydroxy-3-dimethylaminopropoxy)phenyl]-pteridine]	0.180	2.78	0.01598	ED50 (male Wistar rats [1]; [5]): 0.24 µmol/kg; ED50 (male Wistar rats [1]; Mg^+2 (magnesium-sparing), read-out: ED50 Mg^+2): 0.4 µmol/kg; ED50 (male Wistar rats [1]; [6]): 9.36 µmol/kg; diuretic efficacy (natriuretic, potassium- and magnesium-sparing properties) (male Wistar rats [1]; i.v.): outstanding diuretic efficacy
CCNCC(O)COc1ccc(-c2nc3c(N)nc(N)nc3nc2N)cc1 (centres unmarked) [IB, 2,4,7-Triamino-6-[4-(2-hydroxy-3-ethylaminopropoxy)phenyl]-pteridine]	0.161	2.98	0.01878	–
CNCC(O)COc1ccc(-c2nc3c(N)nc(N)nc3nc2N)cc1 (centres unmarked) [IC, 2,4,7-Triamino-6-[4-(2-hydroxy-3-methylaminopropoxy)phenyl]-pteridine]	0.211	2.63	0.01585	–
Nc1nc(N)c2nc(-c3ccc(OCC(O)CN4CCOCC4)cc3)c(N)nc2n1 (centres unmarked) [ID, 2,4,7-Triamino-6-[4-(2-hydroxy-5-morpholinopropoxy)phenyl]-pteridine]	0.237	2.78	0.0193	–
CCN(CC)CC(O)COc1ccc(-c2nc3c(N)nc(N)nc3nc2N)cc1 (centres unmarked) [IE, 2,4,7-Triamino-6-[4-(2-hydroxy-3-diethylaminopropoxy)phenyl]-pteridine]	0.163	2.61	0.01102	–
Nc1nc(N)c2nc(-c3ccc(OCC(O)CN4CCCCC4)cc3)c(N)nc2n1 (centres unmarked) [IF, 2,4,7-Triamino-6-[4-(2-hydroxy-3-piperidinopropoxy)phenyl]-pteridine]	0.191	1.95	0.01017	–
Nc1nc(N)c2nc(-c3ccc(OCC(O)CN4CCCC4)cc3)c(N)nc2n1 (centres unmarked) [IG, 2,4,7-Triamino-6-[4-(2-hydroxy-3-pyrrolidinopropoxy)phenyl]-pteridine]	0.172	2.14	0.0133	–
CC(C)NCC(O)COc1ccc(-c2nc3c(N)nc(N)nc3nc2N)cc1 (centres unmarked) [IH, 2,4,7-Triamino-6-[4-(2-hydroxy-3-isopropylaminopropoxy)phenyl]-pteridine]	0.161	2.49	0.01474	–
CCCCNCC(O)COc1ccc(-c2nc3c(N)nc(N)nc3nc2N)cc1 (centres unmarked) [IJ, 2,4,7-Triamino-6-[4-(2-hydroxy-3-n-butylaminopropoxy)phenyl]-pteridine]	0.176	2.86	0.01859	–
CC(C)N(CC(O)COc1ccc(-c2nc3c(N)nc(N)nc3nc2N)cc1)C(C)C (centres unmarked) [IK, 2,4,7-Triamino-6-[4-(2-hydroxy-3-diisopropylaminopropoxy)phenyl]-pteridine]	0.191	2.08	0.01024	–
CCCCN(CCCC)CC(O)COc1ccc(-c2nc3c(N)nc(N)nc3nc2N)cc1 (centres unmarked) [IL, 2,4,7-Triamino-6-[4-(2-hydroxy-3-di-n-butylaminopropoxy)phenyl]-pteridine]	0.191	2.34	0.01376	–
Nc1nc(N)c2nc(-c3ccccc3)c(N)nc2n1 [Triamterene, 2,4,7-triamino-6-phenyl-pteridine, reference compound]	0.402	1.17	0.00796	ED50 (male Wistar rats [1]; [5]): 1.87 µmol/kg; ED50 (male Wistar rats [1]; [6]): 4.4 µmol/kg
Nc1nc(N)c2nc(-c3ccc(OCCCCC(=O)O)cc3)c(N)nc2n1 [Val-O-TA, 2,4,7-triamino-6-[4-(4-carboxybutoxy)phenyl]-pteridine]	–	–	–	diuretic, natriuretic, and antikaliuretic activity ([4]; administered intravenously): exhibit diuretic, natriuretic, and antikaliuretic activity; compensation of kaliuresis produced by furosemide ([4]; with Val-O-TA): compensated practically fully
